Patent US20120029038A1, “ANIMAL ECTOPARASITE-CONTROLLING AGENT” (SUMITOMO CHEMICAL COMPANY, LIMITED, priority 2010, published 2012)

Tests used:
Type in all cases: in vivo
[1] = tested on: ticks (Haemaphysalis longicornis); assay: Pesticidal activity on ticks in filter paper test; conditions: 48 h, 100 mg/m^2, non-blood-fed young ticks, 2 days later
Protocol: Each (5 mg) of the present hydrazide compounds (1), (3) to (5), (8), (10) and (13) was dissolved in acetone (10 mL), and this acetone solution (1 mL) was uniformly applied onto one side of a filter paper (TOYO No. 2; 5×10 cm; the surface area of the filter paper was 50 cm^2, and thus the amount of the present hydrazide compound applied was 100 mg/m^2). After drying, said filter paper was folded, and the both sides of the paper were clipped to form a bag. Into this bag, test ticks (Haemaphysalis longicornis, non-blood-fed young ticks, 10 ticks/group) were added, and the opening was clipped to seal the bag. Two (2) days later, the number of dead ticks was examined and the mortality was calculated by the following formula:
Mortality(%)=100×(number of dead ticks/number of ticks tested)

[2] = tested on: cat fleas (Ctenocephalides felis); assay: Dropping application against cat-infested cat fleas
Protocol: The previous day before dropping application, 50 test fleas (cat flea adults) were deposited on a cat. Before the dropping application, infested fleas were counted.
Each (0.375 g or 1.5 g) of the present hydrazide compounds (5) and (8) and Comparative compound (52) was dissolved in diethylene glycol monoethyl ether (6.0 g) to prepare a test solution. Said test solution was directly dropped on the skin of the neck and back of the cat while pushing aside fur thereon on at a rate of 0.1 ml per 1 kg of the cat's body weight (dose amount: 5 or 20 mg/kg). This is referred to as a test group. On the other hand, diethylene glycol monoethyl ether alone was applied dropwise to a placebo group.
Two (2) days after the application, the number of living fleas, which were infesting the cats, was examined. When the examination was completed, all infested fleas were removed from the cats.
(§1) Fourteen (14) days and 28 days later, 50 test fleas were re-deposited on each cat. Two (2) days after the re-deposit, the number of living fleas, which were infesting the cats, was examined. When the examination was completed, all infested fleas were removed from the cats. The infestation rate and control rate were calculated by the following formulae: […]
(§2) (i) Method of calculating infestation rate and control rate at the initial stage (2 days) after the application:
Infestation rate(%) at X days after application=(number of living fleas at X days/number of living fleas before application)×100
(§3) Control rate(%) at X days after application=(infestation rate of test group before application−infestation rate of test group at X days)/infestation rate of test group before application×100
(§4) (ii) Method of calculating infestation rate and control rate at 16 days and 30 days after the application:
Infestation rate(%) at X days after application−(number of living fleas at X days/number of fleas deposited)×100
(§5) Control rate(%) at X days after the application (infestation rate of placebo group at X days−infestation rate of test group at X days)/infestation rate of placebo group at X days×100
(§6) In addition, if an infestation rate of a test group is higher than a placebo group, then the control rate is deemed to be 0%.

[3] = tested on: ticks (Haemaphysalis longicornis); assay: Oral administration against dog-infested ticks; conditions: oral gelatin capsules, 20 mg/kg
Protocol: Each of the present hydrazide compounds (5) and (8) and Comparative compound (52) was filled into gelatin capsules, and forcibly and orally administered to a dog in a dose amount of 20 mg per 1 kg of the dog's body weight. This is referred to as a test group. On the other hand, gelatin capsules alone were orally administered to a placebo group.
(§7) Forty two (42) days later, 100 test ticks were deposited on each dog. Two (2) days after the deposit, the number of living ticks, which were infesting the dogs, was examined. When the examination was completed, all infested ticks were removed from the dogs. The infestation rate and control rate were calculated by the following formulae: […]
Method of calculating infestation rate and control rate at 44 days after the administration:
Infestation rate(%) at X days after administration=(number of living ticks at X days/number of ticks deposited)×100
Control rate(%) at X days after administration (infestation rate of placebo group at X days−infestation rate of test group at X days)/infestation rate of placebo group at X days[…]
as §6

[4] = tested on: cat fleas (Ctenocephalides felis); assay: Oral administration against cat-infested cat fleas; conditions: oral with cat food
Protocol: The previous day before oral administration, 50 test fleas (cat flea adults) were deposited on a cat. Before the oral administration, infested fleas were counted.
Each of the present hydrazide compounds (5) and (8) was mixed with a cat food, and orally administered to a cat in a dose amount of 5 or 20 mg per 1 kg of the cat's body weight. This is referred to as a test group. On the other hand, the cat food alone was fed to a placebo group.
Two (2) days after the administration, the number of living fleas, which were infesting the cats, was examined. When the examination was completed, all infested fleas were removed from the cats.
as §1, with “Forty two (42)” for “Fourteen (14) days and 28”
(i) Method of calculating infestation rate and control rate at the initial stage (2 days) after the administration:
Infestation rate(%) at X days after administration=(number of living fleas at X days/number of living fleas before administration)×100
Control rate(%) at X days after administration (infestation rate of test group before administration−infestation rate of test group at X days)/infestation rate of test group before administration×100
(ii) Method of calculating infestation rate and control rate at 44 days after the administration:
Infestation rate(%) at X days after administration=(number of living fleas at X days/number of fleas deposited)×100
Control rate(%) at X days after administration (infestation rate of placebo group at X days−infestation rate of test group at X days)/infestation rate of placebo group at X days×100
as §6

[5] = tested on: cat fleas (Ctenocephalides felis); assay: Pesticidal activity on cat fleas in filter paper test; conditions: 48 h
Protocol: Each (11.3 mg) of the present hydrazide compounds (5) and (8) was dissolved in acetone (5 mL), and this acetone solution ([…]) was uniformly applied onto one side of a filter paper (TOYO No. 2; diameter 3.8 cm; the surface area of the filter paper was 11.3 cm^2, and thus the amount of the present hydrazide compound applied was 400 mg/m^2). After drying, said filter paper was placed on the inside of the lid of a 100 mL vial container. Into the vial container, 20 cat flea adults were released and the lid was closed. The vial container was inverted to force the cat fleas to contact the filter paper. Two (2) days later, the number of dead fleas was examined and the mortality was calculated by the following formula:
(§8) Mortality(%)=100×(number of dead cat fleas/number of cat fleas tested)

[6] = tested on: ticks (Haemaphysalis longicornis); assay: Dropping application against dog-infested ticks; conditions: dog (beagle), 20 mg/kg
Protocol: The previous day before dropping application, 100 test ticks (Haemaphysalis longicornis, young ticks) were deposited on a dog (beagle). Before the dropping application, infested ticks were counted.
Each (1.5 g) of the present hydrazide compounds (5) and (8) was dissolved in diethylene glycol monoethyl ether (6.0 g) to prepare a test solution. Said test solution was directly dropped on the skin of the neck and back of the dog while pushing aside fur thereon at a rate of 0.1 ml per kg of the dog's body weight (dose amount: 20 mg/kg). This is referred to as a test group. On the other hand, diethylene glycol monoethyl ether alone was applied dropwise to a placebo group.
Two (2) days after the application, the number of living ticks, which were infesting the dogs, was examined. When the examination was completed, all infested ticks were removed from the dogs.
as §7, with “Fourteen (14) days and 28” for “Forty two (42)”, “re-deposited” for “deposited”, “re-deposit,” for “deposit,”
as §2
Infestation rate(%) at X days after application=(number of living ticks at X days/number of living ticks before application)×100
as §3, §4
Infestation rate(%) at X days after application=(number of living ticks at X days/number of ticks deposited)×100
as §5, §6

[7] = tested on: cat fleas (Ctenocephalides felis); assay: Dropping application against mouse-infested cat fleas; conditions: 0.5% w/v solution 200 μL dropwise along dorsal line, 2 days later
Protocol: The present hydrazide compound (8) (25 mg) was dissolved in propylene carbonate (5 mL) to prepare a 0.5% w/v solution. Said solution (200 μL) was applied dropwise along the dorsal line of a mouse with a pipette. To a control group, propylene carbonate (200 μL) alone was applied. Each application was repeated 3 times per group.
After the dropping application, 20 cat fleas were deposited on each mouse. Two (2) days later, the number of dead cat fleas was examined and the mortality was calculated by the following formula:
as §8

SMILES: O=C(CC(F)(F)F)NNc1cccc(C2=NOC(c3cc(Cl)cc(Cl)c3)(C(F)(F)F)C2)c1 (stereo not drawn) [(1), N′-{3-[5-(3,5-dichlorophenyl)-5-trifluoromethyl-4,5-dihydroisoxazol-3-yl]phenyl}-3,3,3-trifluoropropionohydrazide]
- mortality at 100 mg/m2 [1]: ≥ 90%

SMILES: O=C(CC(F)(F)F)NNc1cc(C2=NOC(c3cc(Cl)cc(Cl)c3)(C(F)(F)F)C2)ccc1F (stereo not drawn) [(3), N′-{5-[5-(3,5-dichlorophenyl)-5-trifluoromethyl-4,5-dihydroisoxazol-3-yl]-2-fluorophenyl}-3,3,3-trifluoropropionohydrazide]
- mortality at 100 mg/m2 [1]: ≥ 90%

SMILES: O=C(CCCC(F)(F)F)NNc1cc(C2=NOC(c3cc(Cl)cc(Cl)c3)(C(F)(F)F)C2)ccc1Cl (stereo not drawn) [(10), N′-{2-chloro-5-[5-(3,5-dichlorophenyl)-5-trifluoromethyl-4,5-dihydroisoxazol-3-yl]phenyl}-5,5,5-trifluoropentanohydrazide]
- mortality at 100 mg/m2 [1]: ≥ 90%

SMILES: CCc1ccc(C2=NOC(c3cc(Cl)cc(Cl)c3)(C(F)(F)F)C2)cc1NNC(=O)CC(F)(F)F (stereo not drawn) [(13), N′-{5-[5-(3,5-dichlorophenyl)-5-trifluoromethyl-4,5-dihydroisoxazol-3-yl]-2-ethylphenyl}-3,3,3-propionohydrazide]
- mortality at 100 mg/m2 [1]: ≥ 90%

SMILES: CC(=O)NNc1cc(C2=NOC(c3cc(Cl)cc(Cl)c3)(C(F)(F)F)C2)ccc1Cl (stereo not drawn) [Comparative compound (52), N′-{5-[5-(3,5-dichlorophenyl)-5-trifluoromethyl-4,5-dihydroisoxazol-3-yl]-2-chlorophenyl}acetohydrazide, reference compound]
- Flea control rates (%) at 2 days after the application ([2]; 5 mg/kg): 25%
- Flea control rates (%) at 16 days after the application ([2]; 5 mg/kg): 87%
- Flea control rates (%) at 30 days after the application ([2]; 5 mg/kg): 58%
- Tick control rates (%) at 44 days after the administration [3]: 74%

SMILES: O=C(CCC(F)(F)F)NNc1cc(C2=NOC(c3cc(Cl)cc(Cl)c3)(C(F)(F)F)C2)ccc1Cl (stereo not drawn) [Compound (5), N′-{5-[5-(3,5-dichlorophenyl)-5-trifluoromethyl-4,5-dihydroisoxazol-3-yl]-2-chlorophenyl}-4,4,4-trifluorobutyrohydrazide]
- Flea control rates (%) at 2 days after the application ([2]; 5 mg/kg): 83%
- Flea control rates (%) at 16 days after the application ([2]; 5 mg/kg): 100%
- Flea control rates (%) at 30 days after the application ([2]; 5 mg/kg): 97%
- Flea control rates (%) at 2 days after the application ([2]; 20 mg/kg): 100%
- Flea control rates (%) at 16 days after the application ([2]; 20 mg/kg): 100%
- Flea control rates (%) at 30 days after the application ([2]; 20 mg/kg): 100%
- Flea control rates (%) at 2 days after the administration ([4]; 5 mg/kg): 100%
- Flea control rates (%) at 44 days after the administration ([4]; 5 mg/kg): 81%
- Flea control rates (%) at 2 days after the administration ([4]; 20 mg/kg): 100%
- Flea control rates (%) at 44 days after the administration ([4]; 20 mg/kg): 100%
- mortality at 400 mg/m2 [5]: ≥ 90%
- Tick control rates (%) at 2 days after the application [6]: 51%
- Tick control rates (%) at 16 days after the application [6]: 100%
- Tick control rates (%) at 30 days after the application [6]: 100%
- Tick control rates (%) at 44 days after the administration [3]: 89%

SMILES: CN(NC(=O)CCC(F)(F)F)c1cc(C2=NOC(c3cc(Cl)cc(Cl)c3)(C(F)(F)F)C2)ccc1Cl (stereo not drawn) [Compound (8), N′-methyl-N′-{2-chloro-5-[5-(3,5-dichlorophenyl)-5-trifluoromethyl-4,5-dihydroisoxazol-3-yl]phenyl}-4,4,4-trifluorobutyrohydrazide]
- Flea control rates (%) at 2 days after the application ([2]; 5 mg/kg): 100%
- Flea control rates (%) at 16 days after the application ([2]; 5 mg/kg): 100%
- Flea control rates (%) at 30 days after the application ([2]; 5 mg/kg): 97%
- Flea control rates (%) at 2 days after the application ([2]; 20 mg/kg): 100%
- Flea control rates (%) at 16 days after the application ([2]; 20 mg/kg): 100%
- Flea control rates (%) at 30 days after the application ([2]; 20 mg/kg): 100%
- Flea control rates (%) at 2 days after the administration ([4]; 5 mg/kg): 100%
- Flea control rates (%) at 44 days after the administration ([4]; 5 mg/kg): 90%
- Flea control rates (%) at 2 days after the administration ([4]; 20 mg/kg): 100%
- Flea control rates (%) at 44 days after the administration ([4]; 20 mg/kg): 100%
- Mortality [7]: ≥ 70%
- mortality at 400 mg/m2 [5]: ≥ 90%
- Tick control rates (%) at 2 days after the application [6]: 31%
- Tick control rates (%) at 16 days after the application [6]: 100%
- Tick control rates (%) at 30 days after the application [6]: 100%
- Tick control rates (%) at 44 days after the administration [3]: 93%
